Source: US10696634B2, “Pyridine compounds as fungicides” (BASF SE, priority 2015, dated 2020)

Tests used:
Leptosphaeria nodorum = test: Microtiterplate test against wheat leaf spots caused by Leptosphaeria nodorum; type: cell-based; details: comparative example, 405 nm 9 days after inoculation
Botrytis cinerea = test: Microtiterplate test against grey mold Botrytis cinerea; type: cell-based; details: comparative example, 405 nm 9 days after inoculation

Structure (SMILES) | Growth (%) at 31 ppm (Leptosphaeria nodorum) | Growth (%) at 31 ppm (Botrytis cinerea)
COC(C)c1c(F)cccc1Oc1cnc(C)c(C)c1 (stereo not shown) [State of the art] | 68% | 58%
CCOC(C)c1c(F)cccc1Oc1cnc(C)c(C)c1 (stereo not shown) [Example I-16] | 40% | 34%
